In patent US7786111B2, “Medicaments for the treatment of chronic obstructive pulmonary disease” (Boehringer Ingelheim Pharma GmbH & Co. KG, priority 2002, dated 2010):
Where a name gives a salt, the structure may show the parent alone.

| Structure (SMILES) | melting point |
| --- | --- |
| CC(C)(Cc1ccc(F)cc1F)NCC(O)c1cc(O)cc2c1OCC(=O)N2 (centres unmarked) (as salt: hydrochloride) | 279 to 280 °C |
| Cc1cc(CC(C)(C)NCC(O)c2cc(O)cc3c2OCC(=O)N3)ccc1F (centres unmarked) (as salt: hydrochloride) [Example 10, 8-{2-[2-(4-Fluoro-3-methylphenyl)-1,1-dimethylethylamino]-1-hydroxyethyl}-6-hydroxy-4H-benzo[1,4]oxazin-3-one] | 278 to 280 °C |
| Cc1cc(F)ccc1CC(C)(C)NCC(O)c1cc(O)cc2c1OCC(=O)N2 (centres unmarked) (as salt: hydrochloride) [Example 11, 8-{2-[2-(4-fluoro-2-methylphenyl)-1,1-dimethylethylamino]-1-hydroxyethyl}-6-hydroxy-4H-benzo[1,4]oxazin-3-one] | 278 to 280 °C |
| Cc1cc(C)cc(CC(C)(C)NCC(O)c2cc(O)cc3c2OCC(=O)N3)c1 (centres unmarked) (as salt: hydrochloride) [Example 15, 8-{2-[2-(3,5-dimethylphenyl)-1,1-dimethylethylamino]-1-hydroxyethyl}-6-hydroxy-4H-benzo[1,4]oxazin-3-one] | 235 to 238 °C |
| CC(C)(Cc1ccc(OCCCC(=O)O)cc1)NCC(O)c1cc(O)cc2c1OCC(=O)N2 (centres unmarked) [Example 16, 4-(4-{2-[2-hydroxy-2-(6-hydroxy-3-oxo-3,4-dihydro-2H-benzo[1,4]oxazin-8-yl)ethylamino]-2-methylpropyl}phenoxy)butyric acid] | 201 to 204 °C |
